Assay results: patent US20080255238A1, “COMPOSITION CONTAINING A THIOUREA DERIVATIVE FOR PREVENTING OR TREATING PRURITIC OR IRRITANT SKIN DISEASES” (AMOREPACIFIC CORPORATION, priority 2004, published 2008)

Assays:
Format in all cases: in vivo
ICR mice [1] = test: Itching induced by histamine in ICR mice, oral administration; settings: for antipruritic effects (in words): histamine; for % Inhibition (mean ± SE): scratching frequency over 30 min, histamine 100 nmol/mouse i.d. 1 h after dosing
Description: Itching Induced by Histamine in ICR Mice
It is known that the itching response induced by histamine in rodents is generally weaker than that in humans (Kuraishi et al., 1995, Eur. J. Pharmacol. 275, pp 229-233). However, it is known that uniquely, ICR mice sensitively respond to histamine, and this leads to itching response (Maekawa et al., 2000, Jpn. J. Pharmacol. 84, pp 462-466). As is widely known, histamines are representative itching mediators and obviously induce itching in human subjects (Simone et al., 1987, Somatosens. Res. 5, pp 81-92). In this experiment, ICR mice received […]. One day before the experiment, the rostral part of the skin on the back of male ICR mice (28˜32 g, 5˜8 mice/group was clipped. The mice were fasted for 18 hours before experimentation. The drug (compound 1, 0.5 ml/mouse) was dissolved in hydroxypropyl-β-cyclodextrin (HP-β-CD; Mitsubishi Ltd., Japan), and then orally administered to the mice. One hour after the administration, histamine (100 nmol/50 μl/mouse) was dissolved in a physiological saline solution and injected intradermally into the back skin of mice. Immediately after the injection, the mice were placed in a transparent cage, and then the frequency of scratching of the injected site by the hind paws was counted for 30 minutes. The frequency of scratching in test groups administered with the drug was compared to that in a control group administered with histamine alone. The decrease in the frequency of scratching in the test groups was determined as an index of inhibitory effects on itching. The decrease in the frequency of scratching was expressed as a percentage of inhibition to determine inhibitory effects of each compound on itching.

BALB/C mice = test: Itching induced by compound 48/80 (C48/80) in BALB/C mice, oral administration; settings: for % Inhibition (mean ± SE): scratching frequency over 30 min, C48/80 1 h after dosing, BALB/C mice; for inhibitory effects on itching (in words): C48/80, BALB/C mice
Description: Itching Induced by Compound 48/80 (C48/80) in BALB/C Mice
The frequency of scratching induced by an itching-inducing substance varies depending on mouse strain. For example, it was reported that BALB/C mice are less sensitive to histamines and serotonin than ICR mice (Inagaki et al., 2001, Skin Pharmacol. Appl. Skin Physiol., 14, pp 87-96). […] In this experiment, BALB/C mice received C48/80 to induce itching. One day before the experiment, the rostral part of the skin on the back of BALB/C mice (19˜21 g, 6˜12 mice/group) was clipped. After compound 1 was dissolved in HP-β-CD, and compounds 2 and 3 were dissolved in a physiological saline solution containing 10% ethanol and 10% Tween 80, the solutions were orally administered (10 ml/kg) to the mice. One hour after the administration, C48/80 (50 μg/50 μl/mouse) was dissolved in a physiological saline solution and injected intradermally into the back skin of mice. Immediately after the injection, the mice were housed in a transparent cage and then the frequency of scratching of the injected site by the hind paws was counted for 30 minutes. The frequency of scratching in test groups administered with the drugs was compared to that in a control group administered with C48/80 alone. The decrease in the frequency of scratching in the test groups was determined as an index of inhibitory effects on itching. The decrease in the frequency of scratching was expressed as a percentage of inhibition to determine inhibitory effects of each compound on itching.

ICR mice [2] = test: Itching induced by compound 48/80 (C48/80) in ICR mice, intradermal administration; settings: for inhibitory effects on itching (in words): C48/80, ICR mice; for % Inhibition (mean ± SE): scratching frequency over 60 min, C48/80 50 μg/mouse i.d., ICR mice
Description: Itching Induced by Compound 48/80 (C48/80) in ICR Mice
Intradermal Administration
ICR mice suffer from itching upon administration of histamines, and C48/80 (condensation product of N-methyl-p-methoxyphenethylamine with formaldehyde, Sigma, U.S.A.) is a substance that stimulates connective tissues and skin mast cells to release mediators, such as histamines, causing itching. C48/80 causes itching when intradermally administered to humans (Rukwied et al., 2000, Br. J. Pharmacol., 142, pp 1114-1120). In this experiment, ICR mice received C48/80 to induce itching. One day before the experiment, the rostral part of the skin on the back of male ICR mice (28˜32 g, 4˜11 mice/group) was clipped. After the drug (compound 1, 50 μl/mouse) was dissolved in hydroxypropyl-β-cyclodextrin (HP-β-CD; Mitsubishi Ltd., Japan) and C48/80 (50 μg/50 μl/mouse) was dissolved in a physiological saline solution, the solutions were simultaneously injected intradermally into the back skin of mice. Immediately after the injection, the mice were placed in a transparent cage and then the frequency of scratching of the injected site by the hind paws was counted for 60 minutes. The frequency of scratching in test groups administered with the drug was compared to that in a control group administered with C48/80 alone. The decrease in the frequency of scratching in the test groups was determined as an index of inhibitory effects on itching. The decrease in the frequency of scratching was expressed as a percentage of inhibition to determine inhibitory effects of each compound on itching.

ICR mice [3] = test: Inhibition of skin irritation induced by tacrolimus in ICR mice; settings: intradermal; for % Inhibition (mean ± SE): scratching frequency over 30 min, tacrolimus 50 μg/mouse i.d.
Description: Inhibition of Skin Irritation Induced by Tacrolimus in ICR Mice
Subcutaneous Administration
Tacrolimus is an immunosuppressant widely used in liver and renal transplantation (Lawrence, 1998, Dermatol. Ther., 5, pp 74-84). Tacrolimus is currently used in the form of ointment for treating skin diseases, such as atopic dermatitis (Wollenberg et al., 2001, J. Allergy. Clin. Immunol., 107, pp 519-525), psoriasis (Nasr, 2000, Clin. Exp. Dermatol., 25, pp 250-254), allergic contact dermatitis (Lauerma et al., 1992, Lancet, 340, p 556), and the like. However, it was reported that tacrolimus enhances irritation in human models with irritant contact dermatitis (Fuchs et al., 2002, Contact dermatitis, 46, pp 290-294). It was reported that tacrolimus causes side effects, such as skin irritation, itching and erythema, in its initial stage of use (Gupta et al., 2002, JEADV, 16, pp 100-114; Gupta and Chow, 2003, JEADV, 17, pp 493-503). No experimental model of skin irritation by tacrolimus in animal experiments is currently known. Accordingly, tacrolimus as a skin-irritant substance was directly injected to ICR mice by intradermal injection, and then scratching behavior of the mice was observed. One day before the experiment, the rostral part of the skin on the back male ICR mice (30˜33 g, 10 mice/group) was clipped. After the drug (compound 1, 50 μl/mouse) was dissolved in 28% hydroxypropyl-β-cyclodextrin (HP-β-CD; Mitsubishi Ltd., Japan) and tacrolimus (50 μg/50 μl/mouse, Cipla, India) was dissolved in a physiological saline solution containing 5% ethanol and 5% Tween 80, the solutions were simultaneously injected intradermally into the back skin of mice. Immediately after the injection, the mice were placed in a transparent cage and then the frequency of scratching of the injected site by the hind paws was counted for 30 minutes. The frequency of scratching in test groups administered with the drug was compared to that in a group administered with tacrolimus alone. […] The decrease in the frequency of scratching was expressed as a percentage of inhibition to determine inhibitory effects of each compound on skin irritation.

[4] = system: New Zealand white rabbits; test: Inhibition of skin irritation induced by retinoic acid in New Zealand white rabbits, topical administration
Description: Inhibition of Skin Irritation Induced by Retinoic Acid in New Zealand White Rabbits
However, it is known that retinoic acid causes irritation in its initial stage of use and further causes side effects, such as skin erythema and edema, when topically applied to the skin (Varani et al., 2003, Arch. Dermatol. Res., 295, pp 255-262). A number of attempts to reduce the skin irritation induced by retinoic acid have been made in many directions (Kim et al., 2003, Toxicol. Letters., 146, pp 65-73). […] In this experiment, New Zealand white rabbits received retinoic acid to cause skin irritation. One day before the experiment, hairs around the back of four male New Zealand white rabbits (2.0˜2.5 kg) were shaved. Four application sites, which are symmetrical by two (i.e. right upper-site-left upper site and right lower site-left lower site), were marked at the shaved back of each rabbit. 100 μl of 0.025% retinoic acid (Sigma, U.S.A.) was topically applied to all four-application sites. 30 minutes after the application, the two sites marked at the right were treated with the drug (compound 1, 1%/100 μl/each application site), and the two sites marked at the left were treated with a solvent (100 μl/each application site) alone. At this time, retinoic acid and the drug were dissolved in a mixed solution of PEG 400 and ethanol (7:3), and then topically applied twice daily for four consecutive days. On the fifth day, the application sites were visually observed to evaluate the degree of skin irritation. The degree of skin irritation was expressed in a cumulative irritation index. […] The cumulative irritation index was judged based on occurrence of erythema, and scored in accordance with the following criteria: Occurrence of no erythema (0), occurrence of slightly visible erythema (1), occurrence of distinct erythema (2), occurrence of distinct scarlet erythema (3), and occurrence of distinct crimson erythema and scaling (4).

Compound | antipruritic effects (in words) (ICR mice [1]) | % Inhibition (mean ± SE) (ICR mice [1]; dose 10 mg/mouse) [%] | % Inhibition (mean ± SE) (BALB/C mice; dose 3 mg) [%] | % Inhibition (mean ± SE) (BALB/C mice; dose 10 mg) [%] | % Inhibition (mean ± SE) (BALB/C mice; dose 30 mg) [%] | inhibitory effects on itching (in words) (BALB/C mice) | inhibitory effects on itching (in words) (ICR mice [2]) | % Inhibition (mean ± SE) (ICR mice [2]; dose 0.3 mg/mouse) [%] | also measured
CN1CCCC(n2nc(Cc3ccc(Cl)cc3)c3ccccc3c2=O)CC1 (centres unmarked) [Azelastine chloride, reference compound] | potent antipruritic effects in a dose-dependent manner | 91.7 ± 6.8 |  |  |  |  |  |  | % Inhibition (mean ± SE) (ICR mice [1]; dose 1 mg/mouse): 63.7 ± 26.6%
Cc1cc(CNC(=S)NCc2ccc(C(C)(C)C)cc2)ccc1NS(C)(=O)=O [Compound 3, 1-(4-t-butylbenzyl)-3-(3-methyl-4-methanesulfonylaminobenzyl)thiourea] |  |  | 8.21 ± 5.82 | 11.78 ± 15.26 | 38.76 ± 7.77 |  |  |  | 
CN1CCC(=C2c3ccccc3CC(=O)c3sccc32)CC1 [Ketotifen, ketotifen, reference compound] |  |  |  | −24.91 ± 15.09 |  | no inhibitory effects on itching |  |  | 
CN(C)CCC(c1ccc(Cl)cc1)c1ccccn1 (centres unmarked) [chlorpheniramine, reference compound] |  |  | −22.90 ± 28.21 |  |  | no inhibitory effects on itching | no inhibitory effects on itching | −77.61 ± 70.54 | 
CC(C)(C)c1ccc(CNC(=S)NCc2ccc(NS(C)(=O)=O)c(F)c2)cc1 [Compound 1, 1-(4-t-butylbenzyl)-3-(3-fluoro-4-methanesulfonylaminobenzyl)thiourea] | potent anti-pruritic effects in a dose-dependent manner | 39.8 ± 18.1 | −22.90 ± 13.19 | 42.24 ± 24.48 | 42.97 ± 7.13 |  | potent antipruritic effects in a dose-dependent manner | 44.11 ± 10.36 | % Inhibition (mean ± SE) (ICR mice [3]; dose 0.1 mg/mouse): 33.74 ± 37.73%; % Inhibition (mean ± SE) (ICR mice [3]; dose 0.3 mg/mouse): 52.03 ± 24.14%; % Inhibition (mean ± SE) (ICR mice [3]; dose 1 mg/mouse): 106.91 ± 30.13%; inhibitory effects on skin irritation (in words) (ICR mice [3]; tacrolimus): inhibitory effects on skin irritation in a dose-dependent manner; % Inhibition (mean ± SE) (ICR mice [2]; dose 0.03 mg/mouse): −6.51 ± 17.39%; % Inhibition (mean ± SE) (ICR mice [2]; dose 0.1 mg/mouse): 36.96 ± 13.44%; % Inhibition (mean ± SE) (ICR mice [2]; dose 1 mg/mouse): 69.03 ± 7.76%; % Inhibition (mean) ([4]; decrease in cumulative irritation index vs retinoic acid + solvent, compound 1%, 100 μl/application site, topical, rabbits): 40%; Cumulative irritation index (mean ± SE) ([4]; erythema score 0-4 on fifth day, retinoic acid 0.025% + compound 1%, 100 μl/application site, topical twice daily for four days, rabbits): 1.88 ± 0.45; inhibitory effects on skin irritation (in words) ([4]; retinoic acid, New Zealand white rabbits, topical): inhibitory effects on skin irritation; % Inhibition (mean ± SE) (ICR mice [1]; dose 30 mg/mouse): 46.7 ± 24.0%; % Inhibition (mean ± SE) (ICR mice [1]; dose 100 mg/mouse): 75.8 ± 26.9%; % Inhibition (mean ± SE) (BALB/C mice; dose 100 mg): 54.11 ± 18.50%
CC(C)(C)c1ccc(CNC(=S)NCc2ccc(NS(C)(=O)=O)c(Cl)c2)cc1 [Compound 2, 1-(4-t-butylbenzyl)-3-(3-chloro-4-methanesulfonylaminobenzyl)thiourea] |  |  | 0.89 ± 7.23 | 7.42 ± 10.43 | 44.53 ± 11.07 |  |  |  | 
